Results: patent publication US6500849B1, “1-alkyl-, 1-alkenyl-, and 1-alkynylaryl-2-amino 1,3-propanediols and related compounds” (Aventis Pharmaceuticals Inc., priority 1990, dated 2002)
In brackets after ≈: the same amount, converted by molar mass.

Tests used:
Aspergillus Niger = test: Antifungal assay (microtitration technique); format: cell-based; details: Aspergillus Niger strain 500/284, 5 days at 30° C.; for MIC: 120 h
Protocol: (§1) The microtiter plate is prepared as follows: The wells are each filled (2 rows/strain) with 50 μl neopeptone-dextrose broth (12-channel pipette). In addition, one row/strain is coated with 50 μl yeast-nitrogen base/well for yeasts and moulds. […] All wells are then inoculated with 150 μl standardized organism suspension (yeasts: 1×10^3 organisms/ml suspension; cutaneous fungi and moulds: 1.6×10^5 organisms/ml suspension); the total volume is 200 μl per well. There is also a growth control (inoculated, not medicated), a solvent control (inoculated, not medicated, containing solvent as in medicated rows) and a negative control (not inoculated, not medicated). Incubation for 5 days at 30° C. is followed by photometric evaluation. The obtained measurements are checked visually (macroscopically and microscopically) and corrected where necessary. Criteria for Evaluation of the Antimycotic Effect a. Photometric measurements (matrix method) b. Growth, macroscopic evaluation c. Growth, microscopic evaluation (inversion light microscope, magn. 64×).

Candida Albicans = test: Antifungal assay (microtitration technique); format: cell-based; details: Candida Albicans strain 200/175, 5 days at 30° C.; for MIC: 120 h
Protocol: as §1

Microsporum Canis = test: Antifungal assay (microtitration technique); format: cell-based; details: Microsporum Canis strain 150/353, 5 days at 30° C.; for MIC: 120 h
Protocol: as §1

[1] = tested on: Trichophyton Mentagrophytes; test: Antifungal assay (microtitration technique); format: cell-based; details: Trichophyton Mentagrophytes strain 100/25, 5 days at 30° C.; for MIC: 120 h
Protocol: as §1

Trichophyton Rubrum = test: Antifungal assay (microtitration technique); format: cell-based; details: Trichophyton Rubrum strain 101/85, 5 days at 30° C.; for MIC: 120 h
Protocol: as §1

Trichophyton Vaginalis = test: Antifungal assay (microtitration technique); format: cell-based; details: Trichophyton Vaginalis strain 111/216, 5 days at 30° C.; for MIC: 120 h
Protocol: as §1

male CFW mice = test: Dark avoidance assay (reversal of scopolamine induced memory deficits); format: in vivo; details: sc, scopolamine 3.0 mg/kg sc
Protocol: In this assay, three groups of 15 male CFW mice were used—a vehicle/vehicle control group, a scopolamine/vehicle group, and a scopolamine/drug group. Thirty minutes prior to training, the vehicle/vehicle control group received normal saline subcutaneously, and the scopolamine/vehicle and scopolamine/drug groups received scopolamine subcutaneously (3.0 mg/kg, administered as scopolamine hydrobromide). Five minutes prior to training, the vehicle/vehicle control and scopolamine/vehicle groups received distilled water and the scopolamine/drug group received the test compound in distilled water.
The training/testing apparatus consisted of a plexiglass box approximately 48 cm long, 30 cm high and tapering from 26 cm wide at the top to 3 cm wide at the bottom. The interior of the box was divided equally by a vertical barrier into a light compartment (illuminated by a 25-watt reflector lamp suspended 30 cm from the floor) and a dark compartment (covered). There was a hole at the bottom of the barrier 2.5 cm wide and 6 cm tall and a trap door which could be dropped to prevent an animal from passing between the two compartments. […]
At the end of the pretreatment interval, an animal was placed in the light chamber directly under the light fixture, facing away from the door to the dark chamber. […] The latency is seconds for each mouse was recorded.
The test day latency in seconds for each animal was recorded and the animals were then discarded.
The high degree of variability (due to season of the year, housing conditions, and handling) found in one trial passive avoidance paradigm is well known. To control for this fact, individual cutoff (CO) values were determined for each test, compensating for interest variability. […]
The results of the dark avoidance test are expressed as the number of animals per group (%) in which this scopolamine induced memory deficit is blocked as measured by an increase in the latency period.

[2] = tested on: female Swiss Webster mice; test: TPA-induced ear edema assay; format: in vivo; details: 10 μg/ear topical, after about 5 hours
Protocol: In the TPA-induced ear edema assay, TPA (12-O-tetradecanoylphorbol-13-acetate) was dissolved in 30/70 propylene glycol/ethanol and was applied to the right ear of groups of 6 female Swiss Webster mice, which were housed together in a cage under standard conditions for 1 week prior to use with food and water ad lib, at a volume of 20 μl so that a total of 10 μg of TPA is delivered to the inner and outer surfaces of the ear. The test compound was dissolved in the vehicle and was applied to the right ear (the inner and outer surface) at a volume of 20 μl so that a total of 10 μg of the compound was delivered to the ear. After about 5 hours, the animals were sacrificed, a 4 mm diameter plug was taken from each ear and weighed. The difference between the right and left ear plug weights for each animal was determined. The antiinflammatory activity of the test compound is expressed as the mean percent change in the ear plug weight of the treated animals compared to the mean percent change in the plug weight of the control animals.

Protein kinase C = Protein kinase C assay (32P incorporation into Type III histone); format: biochemical, rat; details: for IC50: rat brain protein kinase C, phosphatidylserine/diacylglycerol stimulated, read-out: Protein Kinase Inhibitory Activity IC50
Protocol: (see U. Kikkawa, et al., Biochemical and Biophysical Research Communications, 135, 636 (1986) and R. M. Bell, et al. “Methods in Enzymology, Hormone Action,” Part J, P.M. Conn, Ed., Academic Press, Inc., New York, N.Y. 1986, page 353). Protein kinase C enzyme extract was prepared from the brain of male Wistar rats weighing 180 to 200 g and purified by the method of U. Kikkawa, et al., ibid. 636. The purified extract was stored at −80° C., and aliquots were used in the protein kinase C assay performed by a modification of the method of R. M. Bell, et al., ibid. al 354. To perform the assay, duplicate aliquots of duplicate samples are employed. Basal or unstimulated protein kinase C, phosphatidylserine/diacylglycerol stimulated protein kinase C, and test samples are run in each assay. […] The assay tubes were allowed to warm to 25° C. and an 8 μl mixture of adenosine 5′-triphosphate (100 μM) and ^32P-adenosine triphosphate (1 to 2×10^5 counts per minute) was added to each tube for a final volume of 80 μl per tube. After 2 min, the reaction (the incorporation of phosphorous into Type III histone) was terminated by spotting the assay mixture on phosphocellulose paper. The spots are cut out of the paper and the radioactivity (counts per min) of each spot was determined in a scintillation counter.

Bact. fragilis = test: Anerobic antibacterial assay (agar dilution, Wilkins-Chalgren agar); format: cell-based; details: anaerobic, 48 hours at 37° C.
Bact. ovatus = test: as above; format: cell-based; details: Bact. ovatus 103; anaerobic; 48 hours at 37° C.
Bact. vulgatus = test: as above; format: cell-based; details: Bact. vulgatus 1446; anaerobic; 48 hours at 37° C.
Bact. thetaiotaom. = test: as above; format: cell-based; details: anaerobic, 48 hours at 37° C.
Bact. distasonis = test: as above; format: cell-based; details: Bact. distasonis 1366; anaerobic; 48 hours at 37° C.
Fusobact. varium = test: as above; format: cell-based; details: anaerobic, 48 hours at 37° C.
Spaeroph. freundii = test: as above; format: cell-based; details: Spaeroph. freundii 1369; anaerobic; 48 hours at 37° C.
Peptostr. anaerobius = test: as above; format: cell-based; details: Peptostr. anaerobius 932; anaerobic; 48 hours at 37° C.
Propionibact. acnes = test: as above; format: cell-based; details: anaerobic, 48 hours at 37° C.
Clost. tetani = test: as above; format: cell-based; details: Clost. tetani 19406; anaerobic; 48 hours at 37° C.
Clost. perfringens = test: microbe, parasite or virus in culture; format: cell-based; details: Clost. perfringens 194; anaerobic; 48 hours at 37° C.

Clc1ccccc1C(c1ccccc1)(c1ccccc1)n1ccnc1 [Clotrimazol, reference compound]
MIC (Aspergillus Niger): 1.95 µg/mL (≈ 5.65 µM)
MIC (Candida Albicans): 3.9 µg/mL (≈ 11.3 µM)
MIC (Microsporum Canis): 0.06 µg/mL (≈ 0.174 µM)
MIC [1]: 0.97 µg/mL (≈ 2.81 µM)
MIC (Trichophyton Rubrum): 0.24 µg/mL (≈ 0.696 µM)
MIC (Trichophyton Vaginalis): 62.5 µg/mL (≈ 181 µM)

Cc1cc(C2CCCCC2)n(O)c(=O)c1 [Cyclopirox, reference compound]
MIC (Aspergillus Niger): 0.97 µg/mL (≈ 4.68 µM)
MIC (Candida Albicans): 1.95 µg/mL (≈ 9.41 µM)
MIC (Microsporum Canis): 1.95 µg/mL (≈ 9.41 µM)
MIC [1]: 1.95 µg/mL (≈ 9.41 µM)
MIC (Trichophyton Rubrum): 1.95 µg/mL (≈ 9.41 µM)
MIC (Trichophyton Vaginalis): 15.6 µg/mL (≈ 75.4 µM)

CCCCCCCCC#Cc1cccc(C(O)C(NC(C)=O)C(=O)OCC)n1 (stereo not drawn) [Ethyl erythro-2-acetamido-3-[6-(1-Decynyl)-2-pyridinyl]-3-hydroxypropionate]
Percent of Animals with Scopolamine Induced Memory Deficit Reversal (male CFW mice; Dose 3.0 mg/kg): 27%

CCCCCCCCCCC#Cc1cccc(C(O)C(NC(C)=O)C(=O)OCC)n1 (stereo not drawn) [Ethyl erythro-2-acetamido-3-[6-(1-Dodecynyl)-2-pyridinyl]-3-hydroxypropionate]
Antiinflammatory Activity Percent Decrease in Ear Plug Weight at 10 μg/ear [2]: 50%
IC50 (Protein kinase C): 29 µM

CCCCCCCCCCC=Cc1cccc(C(O)C(CO)NC(C)=O)n1 (stereo not drawn) [cis-erythro-N-{1-[6-(1-Dodecenyl)-2-pyridinyl]-1,3-dihydroxy-2-propanyl}acetamide]
Protein Kinase Inhibitory Activity, percent inhibition at a single concentration (Protein kinase C; @ 100 μM): 66% @ 100 μM

CCCCCCCCCCCCc1cccc(C(O)C(N)CO)n1 (stereo not drawn) [erythro-2-Amino-1-(6-Dodecyl-2-pyridinyl)-1,3-propanediol]
Antiinflammatory Activity Percent Decrease in Ear Plug Weight at 10 μg/ear [2]: 24%
IC50 (Protein kinase C): 8.5 µM

CCCCCCCCCCC#Cc1ccc(C(O)C(N)CO)s1 (stereo not drawn) [erythro-2-Amino-1-[5-(1-Dodecynyl)-2-thienyl]-1,3-propanediol]
Antibacterial activity (MIC, mg/l) (Bact. fragilis; Bact. fragilis 312): 6.25 mg/L
Antibacterial activity (MIC, mg/l) (Bact. fragilis; Bact. fragilis 960): 6.25 mg/L
Antibacterial activity (MIC, mg/l) (Bact. fragilis; Bact. fragilis 1313): 6.25 mg/L
Antibacterial activity (MIC, mg/l) (Bact. fragilis; Bact. fragilis 17390): 3.13 mg/L
Antibacterial activity (MIC, mg/l) (Bact. fragilis; Bact. fragilis 18125): 3.13 mg/L
Antibacterial activity (MIC, mg/l) (Bact. fragilis; Bact. fragilis 19016): 6.25 mg/L
Antibacterial activity (MIC, mg/l) (Bact. ovatus): 3.13 mg/L
Antibacterial activity (MIC, mg/l) (Bact. vulgatus): 3.13 mg/L
Antibacterial activity (MIC, mg/l) (Bact. thetaiotaom.; Bact. thetaiotaom. 123): 3.13 mg/L
Antibacterial activity (MIC, mg/l) (Bact. thetaiotaom.; Bact. thetaiotaom. 1428): 6.25 mg/L
Antibacterial activity (MIC, mg/l) (Bact. thetaiotaom.; Bact. thetaiotaom. 1445): 3.13 mg/L
Antibacterial activity (MIC, mg/l) (Bact. distasonis): 3.13 mg/L
Antibacterial activity (MIC, mg/l) (Fusobact. varium; Fusobact. varium 3085): 6.25 mg/L
Antibacterial activity (MIC, mg/l) (Fusobact. varium; Fusobact. varium 5262): 3.13 mg/L
Antibacterial activity (MIC, mg/l) (Spaeroph. freundii): 1.56 mg/L
Antibacterial activity (MIC, mg/l) (Peptostr. anaerobius): 6.25 mg/L
Antibacterial activity (MIC, mg/l) (Propionibact. acnes; Propionibact. acnes 6919): 3.13 mg/L
Antibacterial activity (MIC, mg/l) (Propionibact. acnes; Propionibact. acnes 6922): 1.56 mg/L
Antibacterial activity (MIC, mg/l) (Clost. tetani): 6.25 mg/L
Antibacterial activity (MIC, mg/l) (Clost. perfringens): 6.25 mg/L
Antifungal Activity MIC (Aspergillus Niger): 3.900 µg/mL
Antifungal Activity MIC (Candida Albicans): 1.950 µg/mL
Antifungal Activity MIC (Microsporum Canis): 3.900 µg/mL
Antifungal Activity MIC [1]: 3.900 µg/mL
Antifungal Activity MIC (Trichophyton Rubrum): 15.625 µg/mL
Antifungal Activity MIC (Trichophyton Vaginalis): 15.625 µg/mL

CCCCCCCCC#Cc1cccc(C(O)C(CO)NC(C)=O)n1 (stereo not drawn) [erythro-N-{1-[6(1-Decynyl)-2-pyridinyl]-1,3-dihydroxy 2-propanyl}acetamide]
Percent of Animals with Scopolamine Induced Memory Deficit Reversal (male CFW mice; Dose 3.0 mg/kg): 33%

CNC(=O)Oc1ccc2c(c1)[C@]1(C)CCN(C)[C@@H]1N2C [physostigmine, reference compound]
Percent of Animals with Scopolamine Induced Memory Deficit Reversal (male CFW mice; Dose 0.31 mg/kg): 20%

CCCCCCCCCCc1cccc(C(O)C(N)CO)n1 (stereo not drawn) [threo-2-amino-1-(6-decyl)-2-pyridinyl)-1,3-propanediol] [threo-2-Amino-1-(6-Decyl-2-pyridinyl)-1,3-dihydroxypropane]
Antiinflammatory Activity Percent Decrease in Ear Plug Weight at 10 μg/ear [2]: 30%
IC50 (Protein kinase C): 25 µM
